What was measured:
[1] = biological target: T1, bovine serum albumin (BSA) (Bos taurus, UniProt P02769); test: Albumin binding by tryptophan fluorescence emission quenching; settings: for K(BSA), BSA-binding constant / kq(BSA), BSA-quenching constant: BSA 3 μM; for K(BSA), BSA-binding constant: buffer pH 7.0, Scatchard equation; for kq(BSA), BSA-quenching constant: buffer pH 7.0, λexc 295 nm, Stern–Volmer, τ0 = 10^–8 s; for BSA fluorescence, % of the initial fluorescence intensity (I/Io): λem,max = 342 nm, final value of titration (Figure S11)
T1 construct: purchased
In short: (§1)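 Compound binding to serum albumin monitored by quenching of albumin tryptophan fluorescence emission. Quenching constants (kq) derived from Stern–Volmer equation; binding constants (K) from Scatchard equation.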

[2] = biological target: T2, human serum albumin (HSA) (Homo sapiens, UniProt P02768); test: as above; settings: for K(HSA), HSA-binding constant / kq(HSA), HSA-quenching constant: HSA 3 μM; for K(HSA), HSA-binding constant: buffer pH 7.0, Scatchard equation; for kq(HSA), HSA-quenching constant: buffer pH 7.0, λexc 295 nm, Stern–Volmer, τ0 = 10^–8 s; for HSA fluorescence, % of the initial fluorescence intensity (I/Io): λem,max = 351 nm, final value of titration (Figure S10)
T2 construct: purchased
In short: as §1

CT DNA = test: Study of the DNA-interaction by cyclic voltammetry; type: binding, calf; settings: for Epa(f), anodic potential / Epc(f), cathodic potential / Epa(b), anodic potential / Epc(b), cathodic potential: M(II)/M(I), 1:2 DMSO/buffer; for Epa(f), anodic potential / Epc(f), cathodic potential: absence of CT DNA; for Epa(b), anodic potential / Epc(b), cathodic potential: presence of CT DNA; for Kr/Kox, ratio of equilibrium DNA-binding constants (reduced/oxidized form): eq. S6
Protocol: Cyclic voltammetry was used to study the interaction of the complexes with CT DNA. An intercalative interaction will induce a positive shift for the electrochemical potential(s) of metal oxidation/reduction, whereas, in the case of electrostatic interaction, a negative shift in the potential(s) may occur. The cyclic voltammograms of the complexes in a 1:2 DMSO:buffer solution (0.33 mM) were recorded in the absence and presence of the CT DNA solution (Figure S13). The predominant electrochemical feature for all complexes is a positive shift in the potential in the presence of CT DNA (ΔEpc/a = (–30)–(+127) mV). Consequently, the intercalative nature of the interaction of the complexes with DNA can be inferred from the presented data.
In order to evaluate further the redox behavior of the complexes, the corresponding equilibrium constants were calculated by determining the ratio Kr/Kox in accordance to Equation (S6), where Kox and Kr are the DNA-binding constants for the oxidized and reduced form, respectively, of the metal ions. For all complexes, the Kr/Kox ratio is close to or above 1 (Table 7), showing the selective binding of DNA to the […] form of the complexes. […]
S3.3 Study of the DNA –interaction by cyclic vol ta mmetry
Cyclic voltammetr y can be also used in order to calculate the corresponding equilibrium constant for the redox process. The ratio of the DNA–binding constants for the reduced (K r) and oxidized forms (Kox) of t he complex es (Kr/Kox) w as calculat ed according t o eq. S6:
Δ = = 0.059 × lo gEE E K oxoo o (eq. S6) […]
where Eo and Eo are the formal potentials of M(II)/M(I) redox couple in the fully bound and […]
free complexes, respectivel y. Kox and Kr are the binding constants for the binding of the oxidized and reduced species to DNA, respectivel y [S8] . […]

EB–DNA adduct (CT DNA) = test: Competitive study with EB (EB–DNA fluorescence quenching); type: binding, calf; settings: for Ksv, Stern–Volmer constant: EB–DNA adduct; for ΔI/Io, percentage of EB–DNA fluorescence quenching: [EB] = 20 μM, [DNA] = 26 μM, λexc 540 nm, λem 592 nm; for EB–DNA relative fluorescence emission intensity, % of the initial (I/Io): λemission = 592 nm, final value (up to), Figure S14; for kq, EB–DNA quenching constant: τo = 23 ns

T1 sequence (P02769 25-607): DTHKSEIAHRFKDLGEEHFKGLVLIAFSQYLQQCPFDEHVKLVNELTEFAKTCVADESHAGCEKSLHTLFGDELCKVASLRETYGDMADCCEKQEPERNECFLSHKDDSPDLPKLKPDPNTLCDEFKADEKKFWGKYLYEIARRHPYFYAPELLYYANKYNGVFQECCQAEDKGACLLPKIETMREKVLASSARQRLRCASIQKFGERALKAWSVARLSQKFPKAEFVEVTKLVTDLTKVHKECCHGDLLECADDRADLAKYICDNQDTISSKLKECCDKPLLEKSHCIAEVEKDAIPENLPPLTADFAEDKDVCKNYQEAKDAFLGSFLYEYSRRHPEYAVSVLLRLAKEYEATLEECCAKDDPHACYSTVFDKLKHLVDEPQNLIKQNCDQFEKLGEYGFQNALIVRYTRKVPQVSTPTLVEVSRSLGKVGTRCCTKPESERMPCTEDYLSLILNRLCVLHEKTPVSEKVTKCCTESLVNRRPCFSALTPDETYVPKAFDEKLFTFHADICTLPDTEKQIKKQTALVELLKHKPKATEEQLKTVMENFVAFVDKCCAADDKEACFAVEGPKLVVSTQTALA
T2 sequence (P02768 25-609): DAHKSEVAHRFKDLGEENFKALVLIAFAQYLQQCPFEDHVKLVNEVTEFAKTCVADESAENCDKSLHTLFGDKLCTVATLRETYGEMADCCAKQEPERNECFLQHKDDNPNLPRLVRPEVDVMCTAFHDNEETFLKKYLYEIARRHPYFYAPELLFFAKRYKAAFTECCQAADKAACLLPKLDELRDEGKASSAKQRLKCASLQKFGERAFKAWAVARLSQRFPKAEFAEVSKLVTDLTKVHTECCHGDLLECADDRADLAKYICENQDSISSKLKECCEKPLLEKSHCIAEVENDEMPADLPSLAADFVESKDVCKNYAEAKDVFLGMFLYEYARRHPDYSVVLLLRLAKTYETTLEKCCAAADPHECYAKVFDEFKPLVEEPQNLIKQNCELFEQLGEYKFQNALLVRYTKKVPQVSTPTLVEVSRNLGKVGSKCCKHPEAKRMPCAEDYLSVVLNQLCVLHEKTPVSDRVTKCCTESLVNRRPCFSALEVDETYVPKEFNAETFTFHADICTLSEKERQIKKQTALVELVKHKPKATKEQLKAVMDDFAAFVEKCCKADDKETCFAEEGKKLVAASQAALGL

Row | Structure (SMILES) | K(BSA), BSA-binding constant [1] | kq(BSA), BSA-quenching constant [1] | BSA fluorescence, % of the initial fluorescence intensity (I/Io) [1] [%] | K(HSA), HSA-binding constant [2] | kq(HSA), HSA-quenching constant [2] | HSA fluorescence, % of the initial fluorescence intensity (I/Io) [2] [%] | Epa(f), anodic potential (CT DNA) [mV] | Epc(f), cathodic potential (CT DNA) [mV] | Epa(b), anodic potential (CT DNA) [mV] | Epc(b), cathodic potential (CT DNA) [mV] | Kr/Kox, ratio of equilibrium DNA-binding constants (reduced/oxidized form) (CT DNA) | Ksv, Stern–Volmer constant (EB–DNA adduct (CT DNA)) | ΔI/Io, percentage of EB–DNA fluorescence quenching (EB–DNA adduct (CT DNA)) [%] | EB–DNA relative fluorescence emission intensity, % of the initial (I/Io) (EB–DNA adduct (CT DNA)) [%] | kq, EB–DNA quenching constant (EB–DNA adduct (CT DNA))
1 | CN1CCN(c2c(F)cc3c(=O)c(C(=O)[O-])cn(CCF)c3c2F)CC1.CN1CCN(c2c(F)cc3c(=O)c(C(=O)[O-])cn(CCF)c3c2F)CC1.[Mn+2].c1ccc(Nc2ccccn2)nc1 [complex 10, [Mn(flrx)2(bipyam)]] | 6.46(±0.39) × 10^4 M^−1 | 1.20(±0.04) × 10^13 M^−1s^−1 | 31.6 | 8.40(±0.58) × 10^4 M^−1 | 8.01(±0.23) × 10^12 M^−1s^−1 | 47.4 | −495 | −706 | −508 | −695 | 0.98 | 5.92(±0.14) × 10^5 M^–1 | 81.1 | 18.9 | 2.57(±0.06) × 10^13 M^−1s^−1
2 | CN1CCN(c2c(F)cc3c(=O)c(C(=O)[O-])cn(CCF)c3c2F)CC1.CN1CCN(c2c(F)cc3c(=O)c(C(=O)[O-])cn(CCF)c3c2F)CC1.[Mn+2].c1cnc2c(c1)ccc1cccnc12 [complex 11, [Mn(flrx)2(phen)]] | 1.09(±0.03) × 10^5 M^−1 | 1.65(±0.04) × 10^13 M^−1s^−1 | 25.2 | 1.01(±0.04) × 10^5 M^−1 | 1.03(±0.01) × 10^13 M^−1s^−1 | 34.2 | −501 | −706 | −499 | −700 | 1.07 | 1.83(±0.03) × 10^5 M^–1 | 76.7 | 23.3 | 7.94(±0.14) × 10^12 M^−1s^−1
3 | CN1CCN(c2c(F)cc3c(=O)c(C(=O)[O-])cn(CCF)c3c2F)CC1.CN1CCN(c2c(F)cc3c(=O)c(C(=O)[O-])cn(CCF)c3c2F)CC1.[Co+2].c1ccc(-c2ccccn2)nc1 [complex 15, [Co(flrx)2(bipy)]] | 2.84(±0.11) × 10^5 M^−1 | 5.12(±0.17) × 10^13 M^−1s^−1 | 9.2 | 8.13(±0.25)×10^4 M^−1 | 1.56(±0.05) × 10^13 M^−1s^−1 | 26.1 | −533 | −701 | −541 | −695 | 0.98 | 4.69(±0.09) × 10^5 M^–1 | 80.4 | 19.6 | 2.04(±0.04) × 10^13 M^−1s^−1
4 | CN1CCN(c2c(F)cc3c(=O)c(C(=O)[O-])cn(CCF)c3c2F)CC1.CN1CCN(c2c(F)cc3c(=O)c(C(=O)[O-])cn(CCF)c3c2F)CC1.[Co+2].c1ccc(Nc2ccccn2)nc1 [complex 16, [Co(flrx)2(bipyam)]] | 1.44(±0.04) × 10^5 M^−1 | 1.98(±0.05) × 10^13 M^−1s^−1 | 22.2 | 9.61(±0.36) × 10^4 M^−1 | 9.35(±0.22) × 10^12 M^−1s^−1 | 36.1 | −466 | −729 | −445 | −741 | 1.08 | 3.77(±0.12) × 10^5 M^–1 | 70.7 | 29.3 | 1.64(±0.05) × 10^13 M^−1s^−1

From PMC9144902, “Metal(II) Complexes of the Fluoroquinolone Fleroxacin: Synthesis, Characterization and Biological Profile” (Pharmaceutics, 2022)
